Usually MIC stands for the smallest concentration in the dilution series that meets the test's criterion for growth inhibition.

Converted amounts (≈) assume the structure as drawn. Like-named read-outs stand apart in the source and are kept apart here.

Holding throughout (assay): in vitro anti-bacterial activity, two-fold agar plate dilution method
Holding throughout (assay type): cell-based

Experiment [1] has as its system Escherichia coli NIHJ-JC2. How it is done:
(§1) The agent for preventing and treating bacterial infections was tested for in vitro anti-bacterial activity by the following two-fold agar plate dilution method. Each test strain was incubated for 20 hours in a bouillon for measuring sensitivity to obtain a test culture (containing about […]). Portions of sensitivity measuring agar medium containing varying concentrations of the antibacterial agent were each innoculated with a 0.005 ml portion of the culture, followed by incubation at 37° C. for 20 hours. The minimum growth inhibitory concentration (MIC) in μg/ml was then determined.
(§2) MIC=minimum inhibitory concentration

The subject of the next experiment is Serratia marcescens. How it is done: as §1, §2
In experiment [2] the test system is Escherichia coli CSH(RE45). The settings on record: 37° C., 20 hours, read-out: MIC. How it is done: as §1, §2
The next experiment concerns Pseudomonas cepacia. The settings on record: Burkholderia cepacia, 37° C., 20 hours, read-out: MIC. The method, then:
as §1, §2

For a further experiment, the system named is Klebsiella pneumoniae. The method, then: as §1, §2
A further experiment relates to Proteus vulgaris. How it is done: as §1, §2
The test system of a further experiment is Pseudomonas aeruginosa. The method, then:
as §1, §2

In a further experiment the test system is Proteus mirabilis. How it is done:
as §1, §2

In experiment [3] the test system is Staphylococcus aureus 209P. The method, then:
as §1, §2

[4] abbreviates: NIHJJC2, Escherichia coli NIHJ-JC2, agar dilution, 37° C., 20 hours, read-out: MIC.
Where [5] appears, read: agar dilution, 37° C., 20 hours, read-out: MIC.
Where [6] appears, read: Staphylococcus aureus 209P, agar dilution, 37° C., 20 hours, read-out: MIC.
[7] abbreviates: Escherichia coli, NIHJJC2, 20 h.

On to `CCCCCCn1cc[n+](CC2=C(C(=O)[O-])N3C(=O)C(NC(=O)/C(=N\OC(C)(C)C(=O)O)c4csc(N)n4)C3SC2)c1` (stereo not drawn) [J, 7-{2-(2-aminothiazole-4-yl)-2-[potassium(2,2-dimethylacetate)oxyimino]acetamide}-3-(3-n-hexyl-1-imidazoliomethyl)-3-cephem-4-carboxylate], for which the minimal inhibitory concentration (MIC) in [1] (setting [4]) amounted to 0.78 µg/mL; in the experiment on Serratia marcescens (setting [5]), 0.78 µg/mL; in experiment [2] it was 0.2 µg/mL; in the experiment with Pseudomonas cepacia, 6.25 µg/mL; in the experiment with Klebsiella pneumoniae (20 h) it was 1.56 µg/mL; in the experiment on Proteus vulgaris (setting [5]) it was 0.2 µg/mL. The MIC was found to be 3.12 µg/mL in the experiment on Pseudomonas aeruginosa (setting [5]), 0.39 µg/mL with Proteus mirabilis (20 h) and 6.25 µg/mL in experiment [3] (setting [6]).
For `C#CCn1cc[n+](CC2=C(C(=O)[O-])N3C(=O)C(NC(=O)/C(=N\OC(C)(C)C(=O)O)c4csc(N)n4)C3SC2)c1` (stereo not drawn) [K, 7-{2-(2-aminothiazole-4-yl)-2-[potassium(2,2-dimethylacetate)oxyimino]acetamide}-3-[3-(2-propynyl)-1-imidazoliomethyl]-3-cephem-4-carboxylate], the MIC in [1] (setting [7]) turned out to be 0.2 µg/mL; against Serratia marcescens (20 h), 0.78 µg/mL; in [2] it was 0.39 µg/mL; with Pseudomonas cepacia it was 0.39 µg/mL; against Klebsiella pneumoniae (20 h), 0.78 µg/mL; in the experiment with Proteus vulgaris (setting [5]) it was 0.39 µg/mL. The values for the MIC (with Pseudomonas aeruginosa (20 h); in the experiment on Proteus mirabilis (setting [5]); in experiment [3] (setting [6])) were 3.13 µg/mL, 0.39 µg/mL and 12.5 µg/mL, respectively.
On to `Cn1c[n+](CC2=C(C(=O)[O-])N3C(=O)C(NC(=O)/C(=N\OC(C)(C)C(=O)O)c4csc(N)n4)C3SC2)c2ccccc21` (stereo not drawn) [L, 7-{2-(2-aminothiazole-4-yl)-2-[potassium(2,2-dimethylacetate)oxyimino]acetamide}-3-(benz-3-N-methyl-1-imidazoliomethyl)-3-cephem-4-carboxylate], for which the MIC in experiment [1] (setting [4]) came out at 0.2 µg/mL; in the experiment on Serratia marcescens (20 h) it was 0.78 µg/mL; in experiment [2], 0.2 µg/mL; in the experiment with Pseudomonas cepacia, 6.25 µg/mL; in the experiment on Klebsiella pneumoniae (20 h), 0.78 µg/mL; in the experiment with Proteus vulgaris (setting [5]), 0.2 µg/mL. The MIC against Pseudomonas aeruginosa (20 h) is 3.13 µg/mL; in the experiment on Proteus mirabilis (setting [5]) it was 0.2 µg/mL; in experiment [3] (Staphylococcus aureus, 209P, 20 h), 1.56 µg/mL.
`CC(C)(O/N=C(\C(=O)NC1C(=O)N2C(C(=O)[O-])=C(C[n+]3ccn(C4CCCCC4)c3)CSC12)c1csc(N)n1)C(=O)O` (stereo not drawn) [N, 7-{2-(2-aminothiazole-4-yl)-2-[potassium(2,2-dimethylacetate)oxyimino]acetamide}-3-(3-cyclohexyl-1-imidazoliomethyl)-3-cephem-4-carboxylate]: the MIC in experiment [1] (setting [4]) came out at 0.2 µg/mL; with Serratia marcescens (setting [5]), 1.56 µg/mL; in experiment [2], 0.1 µg/mL; in the experiment with Pseudomonas cepacia it was 25 µg/mL; in the experiment with Klebsiella pneumoniae (20 h), 0.78 µg/mL; with Proteus vulgaris (setting [5]), 0.2 µg/mL. Further, the MIC with Pseudomonas aeruginosa (setting [5]) is 6.25 µg/mL; with Proteus mirabilis (setting [5]), 0.2 µg/mL; in experiment [3] (setting [6]), 6.25 µg/mL.
`CC(C)(O/N=C(\C(=O)NC1C(=O)N2C(C(=O)[O-])=C(C[n+]3ccn(-c4ccc(O)cc4)c3)CSC12)c1csc(N)n1)C(=O)O` (stereo not drawn) [O, 7-{2-(2-aminothiazole-4-yl)-2-[potassium(2,2-dimethylacetate)oxyimino]acetamide}-3-[3-(4-hydroxyphenyl)-1-imidazoliomethyl]-3-cephem-4-carboxylate]: the MIC was 0.2 µg/mL in [1] (setting [4]); 0.78 µg/mL against Serratia marcescens (20 h); 0.1 µg/mL in [2]; 25 µg/mL with Pseudomonas cepacia; 0.78 µg/mL in the experiment with Klebsiella pneumoniae (20 h); 0.1 µg/mL in the experiment on Proteus vulgaris (20 h). For the same molecule, the MIC in the experiment with Pseudomonas aeruginosa (setting [5]) was 6.25 µg/mL; against Proteus mirabilis (20 h), 0.2 µg/mL; in experiment [3] (setting [6]), 6.25 µg/mL.
Consider `CC(C)(O/N=C(\C(=O)NC1C(=O)N2C(C(=O)[O-])=C(C[n+]3cn(Cc4ccccc4)c4ccccc43)CSC12)c1csc(N)n1)C(=O)O` (stereo not drawn) [P, 7-{2-(2-aminothiazole-4-yl)-2-[potassium(2,2-dimethylacetate)oxyimino]acetamide}-3-(benz-3-N-benzyl-1-imidazoliomethyl)-3-cephem-4-carboxylate], for which the MIC is 3.13 µg/mL in experiment [1] (setting [4]); 6.25 µg/mL in the experiment on Serratia marcescens (setting [5]); 1.56 µg/mL in experiment [2]; 50 µg/mL in the experiment on Pseudomonas cepacia; 6.25 µg/mL in the experiment on Klebsiella pneumoniae (setting [5]); 1.56 µg/mL with Proteus vulgaris (20 h). The figures for the MIC (in the experiment with Pseudomonas aeruginosa (setting [5]); with Proteus mirabilis (20 h); in [3] (setting [6])) were 6.25 µg/mL, 3.13 µg/mL and 3.13 µg/mL, respectively.
As for `C#CCn1c[n+](CC2=C(C(=O)[O-])N3C(=O)C(NC(=O)/C(=N\OC(C)(C)C(=O)O)c4csc(N)n4)C3SC2)c2ccccc21` (stereo not drawn) [Q, 7-{2-(2-aminothiazole-4-yl)-2-[potassium(2,2-dimethylacetate)oxyimino]acetamide}-3-[benz-3-N-(2-propynyl)-1-imidazoliomethyl]-3-cephem-4-carboxylate], the MIC in experiment [1] (setting [4]) stood at 0.2 µg/mL; in the experiment with Serratia marcescens (20 h) it was 0.78 µg/mL; in experiment [2] it was 0.2 µg/mL; in the experiment with Pseudomonas cepacia it was 12.5 µg/mL; in the experiment on Klebsiella pneumoniae (20 h), 0.78 µg/mL; against Proteus vulgaris (20 h) it was 0.1 µg/mL. Further, the MIC in the experiment with Pseudomonas aeruginosa (20 h) amounted to 3.13 µg/mL; in the experiment on Proteus mirabilis (20 h) it was 0.39 µg/mL; in experiment [3] (setting [6]) it was 3.13 µg/mL.
With `C=C(C)Cn1c[n+](CC2=C(C(=O)[O-])N3C(=O)C(NC(=O)/C(=N\OC(C)(C)C(=O)O)c4csc(N)n4)C3SC2)c2ccccc21` (stereo not drawn) [R, 7-{2-(2-aminothiazole-4-yl)-2-[potassium(2,2-dimethylacetate)oxyimino]acetamide}-3-[benz-3-N-(2-methyl-2-propenyl)-1-imidazoliomethyl]-3-cephem-4-carboxylate], the MIC in [1] (setting [4]) is 0.78 µg/mL; in the experiment on Serratia marcescens (20 h), 1.56 µg/mL; in [2], 1.56 µg/mL; in the experiment with Pseudomonas cepacia, 25 µg/mL; with Klebsiella pneumoniae (20 h) it was 3.13 µg/mL; against Proteus vulgaris (20 h) it was 0.78 µg/mL. Also, the MIC was determined as 12.5 µg/mL with Pseudomonas aeruginosa (setting [5]), 3.13 µg/mL in the experiment with Proteus mirabilis (20 h) and 6.25 µg/mL in experiment [3] (setting [6]).
Take `CCCCn1c[n+](CC2=C(C(=O)[O-])N3C(=O)C(NC(=O)/C(=N\OC(C)(C)C(=O)O)c4csc(N)n4)C3SC2)c2ccccc21` (stereo not drawn) [T, 7-{2-(2-aminothiazole-4-yl)-2-[potassium(2,2-dimethylacetate)oxyimino]acetamide}-3-(benz-3-N-butyl-1-imidazoliomethyl)-3-cephem-4-carboxylate]: the MIC worked out at 1.56 µg/mL in experiment [1] (setting [4]); 1.56 µg/mL in the experiment with Serratia marcescens (20 h); 0.39 µg/mL in [2]; 25 µg/mL with Pseudomonas cepacia; 3.13 µg/mL with Klebsiella pneumoniae (20 h); 0.78 µg/mL in the experiment with Proteus vulgaris (20 h). The MIC in the experiment with Pseudomonas aeruginosa (setting [5]) is 6.25 µg/mL; against Proteus mirabilis (20 h), 3.13 µg/mL; in experiment [3] (setting [6]) it was 3.13 µg/mL.
For `C=CCn1c[n+](CC2=C(C(=O)[O-])N3C(=O)C(NC(=O)/C(=N\OC(C)(C)C(=O)O)c4csc(N)n4)C3SC2)c2ccccc21` (stereo not drawn) [U, 7-{2-(2-aminothiazole-4-yl)-2-[potassium(2,2-dimethylacetate)oxyimino]acetamide}-3-[benz-3-N-(2-propenyl)-1-imidazoliomethyl]-3-cephem-4-carboxylate], the MIC in experiment [1] (setting [4]) was determined as 0.39 µg/mL; against Serratia marcescens (20 h), 1.56 µg/mL; in experiment [2], 0.2 µg/mL; in the experiment on Pseudomonas cepacia, 25 µg/mL; against Klebsiella pneumoniae (20 h) it was 0.78 µg/mL; against Proteus vulgaris (20 h), 0.39 µg/mL. In addition, the MIC worked out at 6.25 µg/mL in the experiment on Pseudomonas aeruginosa (setting [5]), 1.56 µg/mL against Proteus mirabilis (20 h) and 6.25 µg/mL in experiment [3] (setting [6]).
Take `C=CCn1c[n+](CC2=C(C(=O)[O-])N3C(=O)C(NC(=O)/C(=N\OC)c4csc(N)n4)C3SC2)c2ccccc21` (stereo not drawn) [V, 7-[2-(2-aminothiazole-4-yl)-2-methoxyiminoacetamide}-3-[benz-3-N-(2-propenyl)-1-imidazoliomethyl]-3-cephem-4-carboxylate]: the MIC is 0.78 µg/mL (≈ 1.41 µM) in experiment [1] (setting [7]); 12.5 µg/mL (≈ 22.6 µM) in the experiment on Serratia marcescens (setting [5]); 3.13 µg/mL (≈ 5.65 µM) in experiment [2]; over 100 µg/mL in the experiment with Pseudomonas cepacia; 1.56 µg/mL (≈ 2.82 µM) in the experiment on Klebsiella pneumoniae (setting [5]); 3.13 µg/mL (≈ 5.65 µM) in the experiment on Proteus vulgaris (setting [5]). In addition, the values for the MIC (in the experiment on Pseudomonas aeruginosa (setting [5]); with Proteus mirabilis (setting [5]); in experiment [3] (setting [6])) were over 100 µg/mL, 6.25 µg/mL (≈ 11.3 µM) and 3.13 µg/mL (≈ 5.65 µM), respectively.
For the molecule `C=CCO/N=C(\C(=O)NC1C(=O)N2C(C(=O)[O-])=C(C[n+]3cn(CC=C)c4ccccc43)CSC12)c1csc(N)n1` (stereo not drawn) [W, 7-[2-(2-aminothiazole-4-yl)-2-(2-propenyloxyimino)acetamide]-3-[benz-3-N-(2-propeny)-1-imidazoliomethyl]-3-cephem-4-carboxylate], the MIC in [1] (setting [4]) was 3.13 µg/mL (≈ 5.4 µM); in the experiment on Serratia marcescens (setting [5]), 25 µg/mL (≈ 43.1 µM); in experiment [2] it was 1.56 µg/mL (≈ 2.69 µM); in the experiment with Pseudomonas cepacia, over 100 µg/mL; in the experiment with Klebsiella pneumoniae (setting [5]), 6.25 µg/mL (≈ 10.8 µM); with Proteus vulgaris (20 h) it was 3.13 µg/mL (≈ 5.4 µM). Moreover, the MIC is 50 µg/mL (≈ 86.3 µM) with Pseudomonas aeruginosa (setting [5]), 6.25 µg/mL (≈ 10.8 µM) with Proteus mirabilis (setting [5]) and 1.56 µg/mL (≈ 2.69 µM) in experiment [3] (setting [6]).
Consider `CC=CCn1c[n+](CC2=C(C(=O)[O-])N3C(=O)C(NC(=O)/C(=N\OC(C)(C)C(=O)O)c4csc(N)n4)C3SC2)c2ccccc21` (stereo not drawn) [X, 7-{2-(2-aminothiazole-4-yl)-2-[potassium(2,2-dimethylacetate)oxyimino]acetamide}-3-[benz-3-N-(2-butenyl)-1-imidazoliomethyl]-3-cephem-4-carboxylate], for which the MIC in [1] (setting [4]) is 1.56 µg/mL; against Serratia marcescens (20 h), 1.56 µg/mL; in experiment [2], 0.78 µg/mL; in the experiment on Pseudomonas cepacia, 50 µg/mL; against Klebsiella pneumoniae (20 h), 3.13 µg/mL; in the experiment with Proteus vulgaris (20 h) it was 1.56 µg/mL. The MIC with Pseudomonas aeruginosa (setting [5]) amounted to 12.5 µg/mL; in the experiment with Proteus mirabilis (20 h) it was 1.56 µg/mL; in [3] (setting [6]), 6.25 µg/mL.
